Patent US11560400B2, “Salts of diphosphate phosphoramidate of nucleosides as anticancer compounds” (NuCana plc, priority 2017, dated 2023)
“And” between values parts separate entries of the source, which are not always exact repeats. Equal values may be shown once. “Also recorded” adds a separate entry of the source. Where a name gives a salt, the structure may show the parent alone. Read-outs that look alike come from different tables or passages of the source.

Legend:
MCF-7 = assay: CellTiterGlo cell viability assay, MCF-7; assay type: cell-based; conditions: MCF-7, 72 h; for EC50: read-out: Ab EC50; for inhibition at 198 µM: read-out: Top Inhibit
Procedure, shortened: (§1)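 Cells are exposed to compounds for 72 h at final concentrations of 198 μM down to 19.8 nM in 0.5% DMSO, then viability is quantified with CellTiterGlo.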

HT29 = assay: CellTiterGlo cell viability assay, HT29; assay type: cell-based; conditions: HT29, 72 h; for EC50: read-out: Ab EC50; for inhibition at 198 µM: read-out: Top Inhibit
Procedure, shortened: as §1

Mia-Pa-Ca-2 = assay: CellTiterGlo cell viability assay, Mia-Pa-Ca-2; assay type: cell-based; conditions: Mia-Pa-Ca-2, 72 h
Procedure, shortened: as §1

Human hepatocytes = conditions: pooled cryopreserved hepatocytes, 1 μM, 0 and 120 min, 37° C.
[1] = tested on: Lin−/CD34+/CD38−/CD123+ LSCs of KG1a cells; assay: Leukaemic stem cell (LSC) targeting in KG1a cells; assay type: cell-based; conditions: in words
Method: KG1a cells were cultured for 48 h in the presence of a wide range of concentrations of each nucleoside analogue and their respective diphosphate phosphramidate. Cells were then harvested and labelled with a cocktail of anti-lineage antibodies (PE-cy7), anti-CD34 (FITC), anti-CD38 (PE) and anti-CD123 (PERCP cy5). The sub-population expressing a leukaemic stem cell (LSC) phenotype were subsequently identified and were expressed as a percentage of all viable cells left in the culture. The percentages of stem cells remaining were then plotted on a dose-response graph and the effects of the diphosphate phosphoramidate were compared with the parental nucleosides.

MOLT-4 = assay: CellTiterGlo cell viability assay, MOLT-4; assay type: cell-based; conditions: Homo sapiens, MOLT-4, 72 h; for inhibition at 198 µM: percentage inhibition at the highest concentration tested, read-out: Top Inh; for EC50: Table 3 classes, read-out: Ab EC50
Procedure, shortened: as §1

HL-60 = assay: CellTiterGlo cell viability assay, HL-60; assay type: cell-based; conditions: Homo sapiens, HL-60, 72 h; for EC50: Table 3 classes, read-out: Ab EC50; for inhibition at 198 µM: percentage inhibition at the highest concentration tested, read-out: Top Inh
Procedure, shortened: as §1

RPMI-8226 = assay: CellTiterGlo cell viability assay, RPMI-8226; assay type: cell-based, Human; conditions: Homo sapiens, RPMI-8226, 72 h; for EC50: Table 3 classes, read-out: Ab EC50; for inhibition at 198 µM: percentage inhibition at the highest concentration tested, read-out: Top Inh
Procedure, shortened: as §1

RL = assay: CellTiterGlo cell viability assay, RL; assay type: cell-based; conditions: Homo sapiens, 72 h; for EC50: Table 3 classes, read-out: Ab EC50; for inhibition at 198 µM: percentage inhibition at the highest concentration tested, read-out: Top Inh
Procedure, shortened: as §1

KG1a cells = assay: In vitro cytotoxicity, Annexin V/propidium iodide assay in KG1a cells; assay type: cell-based; conditions: for change of potency (mean LD50) under hypoxic versus normoxic conditions: 5% oxygen; for Hypoxia Mean LD50 / Mean LD50 (Normoxia Mean LD50): 48 h; for Hypoxia Mean LD50: hypoxic (5% O2); for Mean LD50 (Normoxia Mean LD50): normoxic (20% oxygen); for mean LD50: normoxic; for Ratio Normoxia/Hypoxia: ratio of mean LD50 values
Method: The acute myeloid leukaemia (AML) KG1a cell line was maintained in RPMI medium (Invitrogen, Paisley, UK) supplemented with 100 units/mL penicillin, 100 μg/mL streptomycin and 20% foetal calf serum. Cells were subsequently aliquoted (10^5 cells/100 μL) into 96-well plates and were incubated at 37° C. in a humidified normoxic (20% oxygen) or hypoxic (1% or 5% oxygen) atmosphere for 48 h in the presence of clofarabine, or clofarabine diphosphate phosphoramidates of the invention (1×10^−10M-1×10^−6M). In addition, control cultures were carried out to which no drug was added. Cells were subsequently harvested by centrifugation and were analysed by flow cytometry using the Annexin V assay.
Cultured cells were harvested by centrifugation and then resuspended in 195 μL of calcium-rich buffer. Subsequently, 5 μL of Annexin V (Caltag Medsystems, Botolph Claydon, UK) was added to the cell suspension and cells were incubated in the dark for 10 mins prior to washing. Cells were finally resuspended in 190 μL of calcium-rich buffer together with 10 μL of propidium iodide. Apoptosis was assessed by dual-colour immunofluorescent flow cytometry as described previously. Subsequently LD50 values (the dose required to kill 50% of the cells in a culture) were calculated for each nucleoside analogue and diphosphate phosphoramidate.
The data obtained in these experiments were evaluated using one-way ANOVA. All data was confirmed as Gaussian or a Gaussian approximation using the omnibus K2 test. LD50 values were calculated from the non-linear regression and line of best-fit analysis of the sigmoidal dose-response curves. All statistical analyses were performed using Graphpad Prism 6.0 software (Graphpad Software Inc., San Diego, Calif.).
The in vitro drug sensitivity of KG1a cells was assessed using the Annexin V/propidium iodide assay.

K562 = assay: CellTiterGlo cell viability assay, K562; assay type: cell-based; conditions: Homo sapiens, K562, 72 h; for inhibition at 198 µM: percentage inhibition at the highest concentration tested, read-out: Top Inh; for EC50: Table 3 classes, read-out: Ab EC50
Procedure, shortened: as §1

in vitro = conditions: human, hepatocytes, pH 7.3
OVCAR 3 = assay: CellTiterGlo cell viability assay, OVCAR 3; assay type: cell-based; conditions: Homo sapiens; for EC50: OVCAR 3, 72 h, Table 3 classes, read-out: Ab EC50
Procedure, shortened: as §1

CCRF-CEM = assay: CellTiterGlo cell viability assay, CCRF-CEM; assay type: cell-based; conditions: Homo sapiens, 72 h; for EC50: Table 3 classes, read-out: Ab EC50; for inhibition at 198 µM: percentage inhibition at the highest concentration tested, read-out: Top Inh
Procedure, shortened: as §1

[2] = percentage inhibition at the highest concentration tested
[3] = Homo sapiens, MCF7, 72 h, Table 3 classes
[4] = Homo sapiens, MCF7, 72 h, percentage inhibition at the highest concentration tested
[5] = Homo sapiens, HT-29, 72 h, Table 3 classes
[6] = Homo sapiens, HT-29, 72 h, percentage inhibition at the highest concentration tested

SMILES	inhibition at 198 µM (MOLT-4) [%]	EC50 (MOLT-4) [µM]	EC50 (HL-60) [µM]	inhibition at 198 µM (HL-60) [%]	EC50 (MCF-7; [3]) [µM]	inhibition at 198 µM (MCF-7; [4]) [%]	EC50 (RPMI-8226) [µM]	inhibition at 198 µM (RPMI-8226) [%]	EC50 (HT29; [5]) [µM]	inhibition at 198 µM (HT29; [6]) [%]	EC50 (RL) [µM]	inhibition at 198 µM (RL) [%]	change of potency (mean LD50) under hypoxic versus normoxic conditions (KG1a cells; in words)	Hypoxia Mean LD50 (KG1a cells) [nM]	Mean LD50 (Normoxia Mean LD50) (KG1a cells) [nM]	mean LD50 (KG1a cells)	Ratio Normoxia/Hypoxia (KG1a cells)	inhibition at 198 µM (K562) [%]	EC50 (K562) [µM]	half-life (in vitro) [h]	further results
Nc1ncnc2c1nc(Cl)n2[C@@H]1O[C@H](CO)[C@@H](O)[C@H]1O [8-Cl-Adenosine, reference compound]	–	–	–	–	–	–	–	–	–	–	–	–	–	–	–	–	–	–	–	–	EC50 (MCF-7; absolute EC50, numeric values): 1.83 µM; Top Inhibit (MCF-7; [2]): 85.7%; EC50 (HT29; absolute EC50, numeric values): 1.96 µM; Top Inhibit (HT29; [2]): 73%; EC50 (Mia-Pa-Ca-2; absolute EC50, read-out: Ab EC50): 0.42 µM; Top Inhibit (Mia-Pa-Ca-2; [2]): 85%; Human hepatocytes Mean half-life (Human hepatocytes): >2 h
C[C@H](NP(=O)(Oc1ccccc1)OP(=O)(O)OC[C@H]1O[C@@H](n2cnc3c(N)nc(Cl)nc32)[C@H](F)C1O)C(=O)OCc1ccccc1 (stereo partly drawn) [Example 1, 2-Chloro-9-(2′-Deoxy-2′-fluoro-β-D-arabinofuranosyl)adenine-5′-O-[phenyl(benzoxy-L-alaninyl)] Diphosphate Triethylammonium Salt]	82.7	< 0.2	< 0.2	97	0.2 to 2	59	5 to 10	91	0.2 to 2	66	0.2 to 2	70	no significant difference in mean LD50 values; also recorded: reduction in potency was not observed	16.3	13.7	13.7 nM	84.0	24	> 10	0.333 to 1.67	selectivity against LSCs [1]: trend towards increased selectivity; potency in KG1a cells (dose-response curves) (KG1a cells; in words): highest potency; also recorded: slightly more potent; EC50 (OVCAR 3): > 10 µM; EC50 (CCRF-CEM): < 0.2 µM; inhibition at 198 µM (CCRF-CEM): 98.7%
CCOC(=O)[C@H](C)NP(=O)(Oc1ccccc1)OP(=O)(O)OC[C@H]1O[C@@H](n2cnc3c(N)nc(Cl)nc32)[C@H](F)C1O (stereo partly drawn) [Example 2, 2-Chloro-9-(2′-Deoxy-2′-fluoro-β-D-arabinofuranosyl)adenine-5′-O-[phenyl(ethoxy-L-alaninyl)] Diphosphate Triethylammonium Salt]	98	< 0.2	< 0.2	98	0.2 to 2	54	5 to 10	92	0.2 to 2	62	0.2 to 2	65	reduction in potency was not observed	95.0	71.0	43.8 nM and 71 nM	74.7	29	> 10	0.333 to 1.67	inhibition at 198 µM (OVCAR 3; OVCAR-3, 72 h, percentage inhibition at the highest concentration tested, read-out: Top Inhibit): 48%; EC50 (OVCAR 3): > 10 µM; EC50 (CCRF-CEM): < 0.2 µM; inhibition at 198 µM (CCRF-CEM): 98.7%
